Laboratory results from article PMC5515057, “Protein sensing in living cells by molecular rotor-based fluorescence-switchable chemical probes” (Chemical Science, 2015).
pKd: −log10 of the molar value.

What was measured:
[1] = molecular target: T1, O6-methylguanine-methyltransferase (MGMT) (Homo sapiens, UniProt P16455); assay: fluorescence turn-on kinetics with recombinant MGMT, SDS-PAGE in-gel fluorescence, Job's plot; also HeLa S3 lysate labeling; format: binding; conditions: read-out: fluorescence turn-on kinetics with recombinant MGMT, SDS-PAGE in-gel fluorescenc
T1 construct: recombinant MGMT, about 26 kDa
T1 sequence (P16455 1-207): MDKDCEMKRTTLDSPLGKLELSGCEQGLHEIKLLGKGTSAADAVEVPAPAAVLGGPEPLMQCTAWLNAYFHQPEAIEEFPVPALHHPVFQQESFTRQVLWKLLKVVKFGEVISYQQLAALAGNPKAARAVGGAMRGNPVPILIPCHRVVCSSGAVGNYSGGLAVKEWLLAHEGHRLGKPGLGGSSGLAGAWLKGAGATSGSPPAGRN

[2] = molecular target: T2, human carbonic anhydrase II (hCAII) (Homo sapiens, UniProt P00918); assay: fluorescence turn-on titration with hCAII in PBS; displaced by ethoxzolamide; format: binding
T2 construct: gene CA2

## N#C/C(=C\c1cc2c3c(c1)CCCN3CCC2)C(=O)NCc1ccc(COc2nc(N)nc3[nH]cnc23)cc1 [BG-CCVJ]
[1]
  kinact/KI: ~715 M⁻¹ s⁻¹

## N#CC(=Cc1cc2c3c(c1)CCCN3CCC2)C(=O)NCc1ccc(S(N)(=O)=O)cc1 [SA-CCVJ]
[2]
  pKd: ~7.15
